Reference: ChEMBL document CHEMBL5528024, “Comprehensive and critical view on the anti-inflammatory and immunomodulatory role of natural phenolic antioxidants” (Eur J Med Chem, 2024)
Values after ≈ are worked out from the molar mass of the structure shown.

How the values were obtained:
[1] = system: Leishmania major; experiment: Antileishmanial activity against Leishmania major MHOM/IL/80/Friendlin assessed as reduction in parasite growth incubated for 24 hrs by resazurin dye based analysis; assay type: functional, organism-based
[2] = Inhibition of Lipoxygenase (unknown origin); design: species or system Homo sapiens
[3] = target: Alpha-synuclein (Homo sapiens, UniProt P37840); experiment: Inhibition of wild type full length recombinant alpha-synuclein (unknown origin) expressed in Escherichia coli by spectrophotometric analysis
[4] = system: Splenocyte; experiment: Immunomodulatory activity in mouse splenocytes assessed as maximum effect in CD3+ T cell production at 4 microg/ml incubated for 24 hrs by flow cytometry relative to control; assay type: functional; conditions: dose 4 µg/ml
[5] = system: Splenocyte; experiment: Immunomodulatory activity in mouse splenocytes assessed as maximum effect in CD4+ T cell production at 4 microg/ml incubated for 24 hrs by flow cytometry relative to control; assay type: functional; conditions: dose 4 µg/ml
[6] = species: Rattus norvegicus; experiment: Antioxidant activity in Vitamin E deficient rat model assessed as onset of ascorbate/Fe2+/ADP complex-initiated peroxidation delayed time by measuring onset of peroxidation (lag phase) at 0.5 mM by Thiobarbituric acid substance assay; assay type: functional
[7] = species: Rattus norvegicus; experiment: Antioxidant activity in Vitamin E deficient rat model assessed as onset of ascorbate/Fe2+/ADP complex-initiated peroxidation delayed time by measuring onset of peroxidation (lag phase) at 0.25 mM by Thiobarbituric acid substance assay; assay type: functional
[8] = system: Rattus norvegicus; experiment: Anti-inflammatory activity against serotonin-induced paw edema in Sprague-Dawley rat assessed as inhibition of paw edema at 10 mg/kg, po measured after 5 hrs relative to control; assay type: functional; design: scale not given: the % may be the effect or the level left
[9] = system: Mus musculus; experiment: Antidiabetic activity in six hour fasted type 2 diabetic C57BL/6 db/db mouse assessed as decrease in fasting blood glucose level at 250 mg/kg,po for 4 weeks by Glucose analyzer; assay type: functional; design: scale not given: the % may be the effect or the level left

O=C(O)c1cc(O)c(O)c(O)c1 [GALLIC ACID]
EC50 [1]: 5 µg/mL (≈ 29.4 µM)

COc1cc(/C=C/C(=O)CC(=O)/C=C/c2ccc(O)c(OC)c2)ccc1O [CURCUMIN]
IC50 [2]: 45.3 µM

COc1cc(/C=C/C(=O)O)ccc1O [FERULATE]
IC50 [3]: 13 µM

O=c1c(O)c(-c2ccc(O)c(O)c2)oc2cc(O)ccc12 [FISETIN]
Activity [4]: 39.62% | Activity [5]: 28.92%

O=c1oc2c(O)c(O)cc3c(=O)oc4c(O)c(O)cc1c4c23 [ELLAGIC ACID]
EC50 [1]: 0.9 µg/mL (≈ 2.98 µM)

O=c1c(O)c(-c2cc(O)c(O)c(O)c2)oc2cc(O)cc(O)c12 [MYRICETIN]
Time [6]: 14.3 min | Time [7]: 12.6 min

COc1ccc2c(c1)c(CC(=O)O)c(C)n2C(=O)c1ccc(Cl)cc1 [INDOMETHACIN]
Activity [8]: 34.2%

O=C(/C=C/c1ccc(O)c(O)c1)O[C@@H]1C[C@](O)(C(=O)O)C[C@@H](O)[C@H]1O [CHLOROGENIC ACID]
Activity [9]: 31%
